# Patent US20250312352A1, “GLP-1R MODULATING COMPOUNDS” (Gilead Sciences, Inc., priority 2021, published 2025)
# Target: T1, GLP-1R (Homo sapiens, UniProt P43220)
# T1 construct: host or cells: CHO cells
# Test: GLP-1R activation cAMP assay (Assay 1 or Assay 2)
# Format: cell-based
# Settings: cAMP increase in CHO cells stably expressing GLP-1R; compounds run on one of the two cAMP assays
# How it was run: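 CHO cells stably expressing human GLP-1R were incubated 1 h in HBSS/20 mM HEPES/0.1% BSA, then exposed to 10-point agonist dilutions for 30 min at 37 °C. cAMP increase was measured with an HTRF Gs dynamic kit; EC50 from sigmoidal fit of response versus log concentration.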
# T1 sequence (P43220 24-463): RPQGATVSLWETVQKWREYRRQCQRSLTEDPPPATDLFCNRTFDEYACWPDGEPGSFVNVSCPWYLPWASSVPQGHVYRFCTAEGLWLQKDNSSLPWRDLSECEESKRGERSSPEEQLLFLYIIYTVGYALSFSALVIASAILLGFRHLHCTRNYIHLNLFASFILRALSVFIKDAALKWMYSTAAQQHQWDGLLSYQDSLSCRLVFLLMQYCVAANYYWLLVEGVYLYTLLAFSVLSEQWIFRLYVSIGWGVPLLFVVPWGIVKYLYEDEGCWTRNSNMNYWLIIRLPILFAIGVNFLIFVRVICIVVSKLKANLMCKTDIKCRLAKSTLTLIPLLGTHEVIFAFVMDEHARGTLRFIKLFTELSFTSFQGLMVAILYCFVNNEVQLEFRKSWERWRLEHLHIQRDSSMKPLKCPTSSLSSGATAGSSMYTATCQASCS
row,EC50 [nM],Compound
1,0.09,"Cc1ncc(C#Cc2ccc(COc3cccc(-c4cc(F)c(Cc5nc6ccc(C(=O)O)cc6n5C[C@@H]5CCO5)cc4F)n3)c(F)c2)cn1 [Example 146, (S)-2-(2,5-difluoro-4-(6-((2-fluoro-4-((2-methylpyrimidin-5-yl)ethynyl)benzyl)oxy)pyridin-2-yl)benzyl)-1-(oxetan-2-ylmethyl)-1H-benzo[d]imidazole-6-carboxylic acid]"
2,0.29,"Cc1ncc(C#Cc2ccc(COc3cccc(-c4cc(F)c(Cc5nc6ccc(C(=O)O)cc6n5C[C@@H]5CCO5)cc4F)n3)c(F)c2)n1C [Example 149, (S)-2-(4-(6-((4-((1,2-dimethyl-1H-imidazol-5-yl)ethynyl)-2-fluorobenzyl)oxy)pyridin-2-yl)-2,5-difluorobenzyl)-1-(oxetan-2-ylmethyl)-1H-benzo[d]imidazole-6-carboxylic acid]"
3,0.38,"O=C(O)c1ccc2nc(Cc3cc(F)c(-c4cccc(OCc5nc(C(F)(F)F)cs5)n4)cc3F)n(C[C@@H]3CCO3)c2c1 [Example 53, (S)-2-(2,5-difluoro-4-(6-((4-(trifluoromethyl)thiazol-2-yl)methoxy)pyridin-2-yl)benzyl)-1-(oxetan-2-ylmethyl)-1H-benzo[d]imidazole-6-carboxylic acid]"
4,0.46,"Cn1nc(COc2cccc(-c3cc(F)c(Cc4nc5ccc(C(=O)O)cc5n4C[C@@H]4CCO4)cc3F)n2)cc1C#N [Example 207, (S)-2-(4-(6-((5-cyano-1-methyl-1H-pyrazol-3-yl)methoxy)pyridin-2-yl)-2,5-difluorobenzyl)-1-(oxetan-2-ylmethyl)-1H-benzo[d]imidazole-6-carboxylic acid]"
5,0.208,"CNC(=O)c1cc(Cl)c(COc2cccc(-c3ccc(Cc4nc5ccc(C(=O)O)cc5n4CC4(CF)CC4)c(F)c3)n2)cn1 [Example 402, 2-(4-(6-((4-chloro-6-(methylcarbamoyl)pyridin-3-yl)methoxy)pyridin-2-yl)-2-fluorobenzyl)-1-((1-(fluoromethyl)cyclopropyl)methyl)-1H-benzo[d]imidazole-6-carboxylic acid]"
6,0.218,"CC(F)(F)c1cnc(COc2nc(-c3cc(F)c(Cc4nc5c(F)cc(C(=O)O)cc5n4[C@@H]4COCC4(C)C)cc3F)ccc2F)s1 [Example 338, (S)-2-(4-(6-((5-(1,1-difluoroethyl)thiazol-2-yl)methoxy)-5-fluoropyridin-2-yl)-2,5-difluorobenzyl)-1-(4,4-dimethyltetrahydrofuran-3-yl)-4-fluoro-1H-benzo[d]imidazole-6-carboxylic acid]"
7,0.044,"CCOc1nnc(COc2cccc(-c3cc(F)c(Cc4nc5c(F)cc(C(=O)O)cc5n4C[C@@H]4CCO4)cc3F)n2)s1 [Example 312, (S)-2-(4-(6-((5-ethoxy-1,3,4-thiadiazol-2-yl)methoxy)pyridin-2-yl)-2,5-difluorobenzyl)-4-fluoro-1-(oxetan-2-ylmethyl)-1H-benzo[d]imidazole-6-carboxylic acid]"
8,0.21,"O=C(O)c1ccc2nc(Cc3cc(F)c(-c4cccc(OCc5cc(F)c(Br)s5)n4)cc3F)n(C[C@@H]3CCO3)c2c1 [Example 51, (S)-2-(4-(6-((5-bromo-4-fluorothiophen-2-yl)methoxy)pyridin-2-yl)-2,5-difluorobenzyl)-1-(oxetan-2-ylmethyl)-1H-benzo[d]imidazole-6-carboxylic acid]"
9,11.8,"O=C(O)c1ccc2nc(Cc3cc(F)c(-c4cccc(OCc5cnco5)n4)cc3F)n(C[C@@H]3CCO3)c2c1 [Example 169, (S)-2-(2,5-difluoro-4-(6-(oxazol-5-ylmethoxy)pyridin-2-yl)benzyl)-1-(oxetan-2-ylmethyl)-1H-benzo[d]imidazole-6-carboxylic acid]"
10,0.427,"CCOC(=O)N1Cc2ccc(COc3cccc(-c4cc(F)c(Cc5nc6ccc(C(=O)O)cc6n5C[C@@H]5CCO5)cc4F)n3)cc2C1 [Example 435, (S)-2-(4-(6-((2-(ethoxycarbonyl)isoindolin-5-yl)methoxy)pyridin-2-yl)-2,5-difluorobenzyl)-1-(oxetan-2-ylmethyl)-1H-benzo[d]imidazole-6-carboxylic acid]"
11,0.33,"Cn1ncc2cc(COc3cccc(-c4cc(F)c(Cc5nc6ccc(C(=O)O)cc6n5C[C@@H]5CCO5)cc4F)n3)sc21 [Example 230, 2-[[2,5-difluoro-4-[6-[(1-methylthieno[2,3-c]pyrazol-5-yl)methoxy]-2-pyridyl]phenyl]methyl]-3-[[(2S)-oxetan-2-yl]methyl]benzimidazole-5-carboxylic acid]"
12,0.08,"O=C(O)c1ccc2nc(Cc3cc(F)c(-c4cccc(OCc5cnc(-c6cnn(C7CC7)c6)cc5F)n4)cc3F)n(C[C@@H]3CCO3)c2c1 [Example 161, (S)-2-(4-(6-((6-(1-cyclopropyl-1H-pyrazol-4-yl)-4-fluoropyridin-3-yl)methoxy)pyridin-2-yl)-2,5-difluorobenzyl)-1-(oxetan-2-ylmethyl)-1H-benzo[d]imidazole-6-carboxylic acid]"
13,0.69,"O=C(O)c1ccc2nc(Cc3cc(F)c(-c4cccc(OCc5cnc(C(=O)NCC(F)(F)F)cc5Cl)n4)cc3F)n(C[C@@H]3CCO3)c2c1 [Example 191, (S)-2-(4-(6-((4-chloro-6-((2,2,2-trifluoroethyl)carbamoyl)pyridin-3-yl)methoxy)pyridin-2-yl)-2,5-difluorobenzyl)-1-(oxetan-2-ylmethyl)-1H-benzo[d]imidazole-6-carboxylic acid]"
14,0.22,"Cn1cc(CNC(=O)c2cc(Cl)c(COc3cccc(-c4cc(F)c(Cc5nc6ccc(C(=O)O)cc6n5C[C@@H]5CCO5)cc4F)n3)cn2)cn1 [Example 193, (S)-2-(4-(6-((4-chloro-6-(((1-methyl-1H-pyrazol-4-yl)methyl)carbamoyl)pyridin-3-yl)methoxy)pyridin-2-yl)-2,5-difluorobenzyl)-1-(oxetan-2-ylmethyl)-1H-benzo[d]imidazole-6-carboxylic acid]"
15,0.039,"COc1nnc(COc2cccc(-c3cc(F)c(Cc4nc5ccc(C(=O)O)cc5n4[C@@H]4COCC4(C)C)cc3F)n2)s1 [Example 342, (S)-2-(2,5-difluoro-4-(6-((5-methoxy-1,3,4-thiadiazol-2-yl)methoxy)pyridin-2-yl)benzyl)-1-(4,4-dimethyltetrahydrofuran-3-yl)-1H-benzo[d]imidazole-6-carboxylic acid]"
16,0.109,"O=C(O)c1ccc2nc(Cc3cc(F)c(-c4cccc(OCc5nc6c(s5)CCC6)n4)cc3F)n(C[C@@H]3CCO3)c2c1 [Example 332, (S)-2-(4-(6-((5,6-dihydro-4H-cyclopenta[d]thiazol-2-yl)methoxy)pyridin-2-yl)-2,5-difluorobenzyl)-1-(oxetan-2-ylmethyl)-1H-benzo[d]imidazole-6-carboxylic acid]"
17,0.311,"COc1nnc(COc2cccc(-c3cc(F)c(Cc4nc5ccc(C(=O)O)cc5n4C4COCC4(C)C)c(F)c3F)n2)s1 (stereo not drawn) [Example 282, 1-(4,4-dimethyltetrahydrofuran-3-yl)-2-(2,3,6-trifluoro-4-(6-((5-methoxy-1,3,4-thiadiazol-2-yl)methoxy)pyridin-2-yl)benzyl)-1H-benzo[d]imidazole-6-carboxylic acid]"
18,0.79,"O=C(O)c1ccc2nc(Cc3cc(F)c(-c4cccc(OCc5cn6cc(Cl)ccc6n5)n4)cc3F)n(C[C@@H]3CCO3)c2c1 [Example 32, (S)-2-(4-(6-((6-chloroimidazo[1,2-a]pyridin-2-yl)methoxy)pyridin-2-yl)-2,5-difluorobenzyl)-1-(oxetan-2-ylmethyl)-1H-benzo[d]imidazole-6-carboxylic acid]"
19,0.02,"NC(=O)c1cc(F)c(COc2nc(-c3cc(F)c(Cc4nc5c(F)cc(C(=O)O)cc5n4C[C@@H]4CCO4)cc3F)ccc2F)cn1 [Example 208, (S)-2-(4-(6-((6-carbamoyl-4-fluoropyridin-3-yl)methoxy)-5-fluoropyridin-2-yl)-2,5-difluorobenzyl)-4-fluoro-1-(oxetan-2-ylmethyl)-1H-benzo[d]imidazole-6-carboxylic acid]"
20,0.58,"CC1(C)COC[C@@H]1n1c(Cc2cc(F)c(-c3cccc(OCc4ccc(C(=O)NC5(C#N)CC5)nc4)n3)cc2F)nc2ccc(C(=O)O)cc21 [Example 202, (R)-2-(4-(6-((6-((1-cyanocyclopropyl)carbamoyl)pyridin-3-yl)methoxy)pyridin-2-yl)-2,5-difluorobenzyl)-1-(4,4-dimethyltetrahydrofuran-3-yl)-1H-benzo[d]imidazole-6-carboxylic acid]"
21,0.54,"O=C(O)c1ccc2nc(Cc3cc(F)c(-c4cccc(OCc5cc(C(F)(F)F)sn5)n4)cc3F)n(C[C@@H]3CCO3)c2c1 [Example 13, (S)-2-(2,5-difluoro-4-(6-((5-(trifluoromethyl)isothiazol-3-yl)methoxy)pyridin-2-yl)benzyl)-1-(oxetan-2-ylmethyl)-1H-benzo[d]imidazole-6-carboxylic acid]"
22,0.48,O=C(O)c1ccc2nc(Cc3cc(F)c(-c4cccc(OCc5ccc(-c6cn([C@@H]7CCOC7)nn6)cc5F)n4)cc3F)n(C[C@@H]3CCO3)c2c1 [Example 213]
23,0.777,"CNC(=O)c1cc(Cl)c(COc2cccc(-c3cc(F)c(Cc4nc5c(F)cc(C(=O)O)cc5n4C[C@@H](C)OC)cc3F)n2)cn1 [Example 393, (R)-2-(4-(6-((4-chloro-6-(methylcarbamoyl)pyridin-3-yl)methoxy)pyridin-2-yl)-2,5-difluorobenzyl)-4-fluoro-1-(2-methoxypropyl)-1H-benzo[d]imidazole-6-carboxylic acid]"
24,0.412,"COc1nnc(COc2cccc(-c3ccc(Cc4nc5ccc(C(=O)O)cc5n4[C@@H]4COCC4(C)C)cc3F)n2)s1 [Example 400, (S)-1-(4,4-dimethyltetrahydrofuran-3-yl)-2-(3-fluoro-4-(6-((5-methoxy-1,3,4-thiadiazol-2-yl)methoxy)pyridin-2-yl)benzyl)-1H-benzo[d]imidazole-6-carboxylic acid]"
